Source: the supplement of paper PMC11208160

Assay: recombinant UMI read abundance after kanamycin selection (control-corrected) (log10(CPM+1)); higher = more efficient recombination; extreme values may be limits of the assay; sequences stand for … in AGTGCAGAGAAAATCGGCCAGTTTTCTCTGCCTGCAGTCCGCATGCCGTGGGACCCCTTGGGTTCTAACCTGTTGCCTAGATTTATGCAGCGGACTGCCTTTCTCCCAAAGTGATAAACCGG…AGGTTGGTTTCACT; site = the 11-nt donor
In short: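 The measure is log10(CPM+1) for recombinant UMIs. These were PCR-amplified across the donor–target junction and sequenced after Escherichia coli carrying a donor and donor-binding-loop pair library and a target plasmid with T7-inducible IS621 bridge recombinase was plated on IPTG (0.07 mM) plus kanamycin or unselected. CPM were averaged over two replicates and scaled by control-derived factors.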
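Note: IS621 bridge recombinase in Escherichia coli cells against a fixed T5 target plasmid.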

| Sequence | recombinant UMI read abundance (log10) |
| --- | --- |
| TCTTCCCCATGGACCGGTTTTCCCGGTAATCCGTATTTGTA (site TTTTCCCCTTA) | 0.00951 |
| TCTTGCCCATGGACCGGTTTTCCCGGTAATCCGTATTTGAT (site ACTTGCCCTAT) | 0.00765 |
| TCTTGCCCATGGACCGGTTTTCCCGGTAATCCGTATTTGAT (site CCTTGCCCTAT) | 0.0026 |
| TCTTGCCCATGGACCGGTTTTCCCGGTAATCCGTATTTGAT (site GCTTGCCCTAT) | 0.00287 |
| TCTTGCCCATGGACCGGTTTTCCCGGTAATCCGTATTTGAT (site TCTTGCCCTAT) | 0.0104 |
| TCTTTAGCATGGACCGGTTTTCCCGGTAATCCGTATTTGCA (site TCTTTAGCTTG) | 0 |
| TGAAAGACATGGACCGGTTTTCCCGGTAATCCGTATTTGTA (site TGAAAGACTTA) | 2.37 |
| TGAACACCATGGACCGGTTTTCCCGGTAATCCGTATTTGCA (site TGAACACCTTG) | 0.302 |
| TGAACATCATGGACCGGTTTTCCCGGTAATCCGTATTTGGC (site TGAACATCTGC) | 1.37 |
| TGAACGACATGGACCGGTTTTCCCGGTAATCCGTATTTGGA (site TGAACGACTTC) | 0.221 |
| TGAAGAGCATGGACCGGTTTTCCCGGTAATCCGTATTTGCC (site TGAAGAGCTGG) | 1.62 |
| TGAAGCACATGGACCGGTTTTCCCGGTAATCCGTATTTGCG (site TGAAGCACTCG) | 1.18 |
| TGAATCACATGGACCGGTTTTCCCGGTAATCCGTATTTGAA (site CACGCGCCTGA) | 0.00781 |
| TGACATTCATGGACCGGTTTTCCCGGTAATCCGTATTTGCC (site TGACATTCTGG) | 2.22 |
| TGACCCGCATGGACCGGTTTTCCCGGTAATCCGTATTTGAC (site CAGATACCTCC) | 0.00655 |
| TGACGAACATGGACCGGTTTTCCCGGTAATCCGTATTTGGT (site TGACGAACTAC) | 1.16 |
| TGACGCTCATGGACCGGTTTTCCCGGTAATCCGTATTTGCG (site TGACGCTCTCG) | 1.33 |
| TGACTGCCATGGACCGGTTTTCCCGGTAATCCGTATTTGAA (site TGACTGCCTTT) | 0.0135 |
| TGACTGGCATGGACCGGTTTTCCCGGTAATCCGTATTTGTA (site TGACTGGCTTA) | 1.34 |
| TGACTGTCATGGACCGGTTTTCCCGGTAATCCGTATTTGAT (site TGACTGTCTAT) | 0.245 |
| TGACTTTCATGGACCGGTTTTCCCGGTAATCCGTATTTGAG (site TGACTTTCTCT) | 0 |
| TGAGCGTCATGGACCGGTTTTCCCGGTAATCCGTATTTGAC (site TGAGCGTCTGT) | 1.7 |
| TGAGCTACATGGACCGGTTTTCCCGGTAATCCGTATTTGTC (site GCGAACTCTCC) | 0 |
| TGAGGACCATGGACCGGTTTTCCCGGTAATCCGTATTTGGG (site AGAGGACCTCC) | 0.0068 |
| TGAGGACCATGGACCGGTTTTCCCGGTAATCCGTATTTGGG (site CGAGGACCTCC) | 0.00688 |

| Sequence | recombinant UMI read abundance (log10) |
| --- | --- |
| TGAGGACCATGGACCGGTTTTCCCGGTAATCCGTATTTGGG (site GGAGGACCTCC) | 0.0165 |
| TGAGGACCATGGACCGGTTTTCCCGGTAATCCGTATTTGGG (site TGAGGACCTCC) | 0.0291 |
| TGAGGACCATGGACCGGTTTTCCCGGTAATCCGTATTTGGT (site TGAGGACCTAC) | 0.00901 |
| TGAGGAGCATGGACCGGTTTTCCCGGTAATCCGTATTTGGT (site TGAGGAGCTAC) | 1.12 |
| TGAGGCTCATGGACCGGTTTTCCCGGTAATCCGTATTTGGT (site TGAGGCTCTAC) | 1.76 |
| TGAGTTTCATGGACCGGTTTTCCCGGTAATCCGTATTTGCT (site TGAGTTTCTAG) | 1.54 |
| TGATACTCATGGACCGGTTTTCCCGGTAATCCGTATTTGCA (site TAATACTCTTG) | 2.38 |
| TGATACTCATGGACCGGTTTTCCCGGTAATCCGTATTTGCA (site TCATACTCTTG) | 1.29 |
| TGATACTCATGGACCGGTTTTCCCGGTAATCCGTATTTGCA (site TGATACTCTTG) | 2.51 |
| TGATACTCATGGACCGGTTTTCCCGGTAATCCGTATTTGCA (site TTATACTCTTG) | 1.96 |
| TGATCATCATGGACCGGTTTTCCCGGTAATCCGTATTTGCG (site CGATCATCTAG) | 0 |
| TGATCATCATGGACCGGTTTTCCCGGTAATCCGTATTTGCG (site TGATCATCTCG) | 1.27 |
| TGATCGACATGGACCGGTTTTCCCGGTAATCCGTATTTGTT (site AGATCGACTAA) | 0.0146 |
| TGATCGACATGGACCGGTTTTCCCGGTAATCCGTATTTGTT (site CGATCGACTAA) | 0.0214 |
| TGATCGACATGGACCGGTTTTCCCGGTAATCCGTATTTGTT (site GGATCGACTAA) | 0.0286 |
| TGATCGACATGGACCGGTTTTCCCGGTAATCCGTATTTGTT (site TGATCGACTAA) | 0.0254 |
| TGATTATCATGGACCGGTTTTCCCGGTAATCCGTATTTGAA (site TGATTATCTTT) | 1.32 |
| TGCACAGCATGGACCGGTTTTCCCGGTAATCCGTATTTGGC (site TGCACAGCTGC) | 1.05 |
| TGCATATCATGGACCGGTTTTCCCGGTAATCCGTATTTGAC (site TGCATATCTGT) | 1.25 |
| TGCATCCCATGGACCGGTTTTCCCGGTAATCCGTATTTGAC (site TGCATCCCTGT) | 0.448 |
| TGCATGCCATGGACCGGTTTTCCCGGTAATCCGTATTTGGT (site TGCATGCCTAC) | 0.0134 |
| TGCCAATCATGGACCGGTTTTCCCGGTAATCCGTATTTGTG (site TGCCAATCTCA) | 0.0694 |
| TGCCACACATGGACCGGTTTTCCCGGTAATCCGTATTTGAG (site TGCCACACTCT) | 0.305 |
| TGCCCCGCATGGACCGGTTTTCCCGGTAATCCGTATTTGTT (site TGCCCCGCTAA) | 0.0107 |
| TGCCGATCATGGACCGGTTTTCCCGGTAATCCGTATTTGGT (site TGCCGATCTAC) | 0 |

| Sequence | recombinant UMI read abundance (log10) |
| --- | --- |
| TGCCGCTCATGGACCGGTTTTCCCGGTAATCCGTATTTGGA (site TGCCGCTCTTC) | 0.324 |
| TGCCGGTCATGGACCGGTTTTCCCGGTAATCCGTATTTGCA (site TGCCGGTCTTG) | 1.45 |
| TGCCGTTCATGGACCGGTTTTCCCGGTAATCCGTATTTGAT (site TGCCGTTCTAT) | 0 |
| TGCCTCGCATGGACCGGTTTTCCCGGTAATCCGTATTTGAT (site TGCCTCGCTAT) | 0.0124 |
| TGCGTCACATGGACCGGTTTTCCCGGTAATCCGTATTTGCC (site TGCGTCACTGG) | 1.97 |
| TGCTAATCATGGACCGGTTTTCCCGGTAATCCGTATTTGCT (site TGCTAATCTAG) | 1.08 |
| TGCTAGGCATGGACCGGTTTTCCCGGTAATCCGTATTTGGG (site TGCTAGGCTAC) | 0.0327 |
| TGCTAGGCATGGACCGGTTTTCCCGGTAATCCGTATTTGGG (site TGCTAGGCTCC) | 0.00935 |
| TGCTAGGCATGGACCGGTTTTCCCGGTAATCCGTATTTGGG (site TGCTAGGCTGC) | 0 |
| TGCTAGGCATGGACCGGTTTTCCCGGTAATCCGTATTTGGG (site TGCTAGGCTTC) | 0.00914 |
| TGCTAGTCATGGACCGGTTTTCCCGGTAATCCGTATTTGAC (site TGCTAGTCTGT) | 0 |
| TGCTCAACATGGACCGGTTTTCCCGGTAATCCGTATTTGGC (site TGCTCAACTGC) | 0 |
| TGCTCATCATGGACCGGTTTTCCCGGTAATCCGTATTTGCT (site CGATCATCTAG) | 0 |
| TGCTCATCATGGACCGGTTTTCCCGGTAATCCGTATTTGCT (site TGCTCATCTAG) | 1.08 |
| TGCTCCACATGGACCGGTTTTCCCGGTAATCCGTATTTGGA (site TGCTCCACTTC) | 0 |
| TGCTCCCCATGGACCGGTTTTCCCGGTAATCCGTATTTGGT (site TGCTCCCCTAC) | 0.0121 |
| TGCTGCGCATGGACCGGTTTTCCCGGTAATCCGTATTTGTG (site TGCTGCGCTCA) | 0.0115 |
| TGCTGGGCATGGACCGGTTTTCCCGGTAATCCGTATTTGGT (site TGCTAGGCTAC) | 0.109 |
| TGCTGGGCATGGACCGGTTTTCCCGGTAATCCGTATTTGGT (site TGCTCGGCTAC) | 0.0121 |
| TGCTGGGCATGGACCGGTTTTCCCGGTAATCCGTATTTGGT (site TGCTGGGCTAC) | 0.306 |
| TGCTGGGCATGGACCGGTTTTCCCGGTAATCCGTATTTGGT (site TGCTTGGCTAC) | 0.0187 |
| TGCTGTCCATGGACCGGTTTTCCCGGTAATCCGTATTTGTT (site TGCTGTCCTAA) | 0.00448 |
| TGGAAGACATGGACCGGTTTTCCCGGTAATCCGTATTTGCG (site AGGAAGACTTG) | 0 |
| TGGAAGACATGGACCGGTTTTCCCGGTAATCCGTATTTGCG (site TGGAAGACTCG) | 2.05 |
| TGGACAACATGGACCGGTTTTCCCGGTAATCCGTATTTGTG (site TGGACAACTCA) | 0.209 |
